Source: PubChem BioAssay (NCI)
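Each compound was tested at five concentrations against cells in 96-well plates for 48 hours. Definition used: TGI = concentration required for complete inhibition of growth.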

What was measured:
Experiment in all cases: DTP human tumour cell line panel, 48 h
IGROV1 ovarian = system: IGROV1 ovarian
K-562 leukemia = system: K-562 leukemia
MOLT-4 leukemia = system: MOLT-4 leukemia
NCI-H23 lung = system: NCI-H23 lung
PC-3 prostate = system: PC-3 prostate
SK-OV-3 ovarian = system: SK-OV-3 ovarian
SN12C renal = system: SN12C renal
SR leukemia = system: SR leukemia
OVCAR-5 ovarian = system: OVCAR-5 ovarian

Row | SMILES | TGI (IGROV1 ovarian) | TGI (K-562 leukemia) | TGI (MOLT-4 leukemia) | TGI (NCI-H23 lung) | TGI (PC-3 prostate) | TGI (SK-OV-3 ovarian) | TGI (SN12C renal) | TGI (SR leukemia) | TGI (OVCAR-5 ovarian)
1 | O=C1/C(=C/c2ccc(Cl)cc2)Oc2cc(O)ccc21 | > 100 µM | 38.5 µM | 48.1 µM | > 100 µM | 89.7 µM | 78.8 µM | > 100 µM | 47.1 µM | –
2 | COc1ccc(-n2c(SC(CN3CCOCC3)CN3CCCC3=O)nc3ccccc3c2=O)cc1 (configuration not stated) | > 100 µM | > 100 µM | > 100 µM | > 100 µM | > 100 µM | > 100 µM | > 100 µM | > 100 µM | > 100 µM
3 | Oc1c(CN2CCCC2)ccc2cccnc12 | > 84.5 µM | > 100 µM | > 100 µM | 99.6 µM | > 100 µM | > 96.2 µM | > 83.5 µM | > 100 µM | > 100 µM
4 | CC(C)(C)NC1=NC(C(F)(F)F)(C(F)(F)F)NC(=O)N1 | > 100 µM | > 100 µM | > 100 µM | > 100 µM | > 100 µM | > 100 µM | > 100 µM | > 100 µM | > 100 µM
5 | Nc1nc(Cl)cc(OCC2(CO)CCCC2)n1 | > 100 µM | > 100 µM | > 100 µM | > 100 µM | > 100 µM | – | > 100 µM | – | > 100 µM
6 | Cn1c(-c2ccc[se]2)ccc1-c1ccc(C=O)[se]1 | 0.487 µM | > 100 µM | > 100 µM | 48.9 µM | > 100 µM | 42.3 µM | > 67.9 µM | > 100 µM | –
7 | Cc1nn(C(=O)c2ccccc2O)c2c1C(c1ccc(O)cc1O)SC(N)=N2 (configuration not stated) | > 10 µM | > 10 µM | > 10 µM | > 10 µM | > 10 µM | > 10 µM | > 10 µM | > 10 µM | 3.91 µM
8 | Cc1ccc(Cc2cc(N3CCN(c4cccc(Cl)c4)CC3)nnc2C)cc1 | – | – | – | > 100 µM | > 100 µM | > 100 µM | > 100 µM | – | > 100 µM
9 | O=c1[nH]c(=O)c2ncn(-c3ccc([N+](=O)[O-])cn3)c2[nH]1 | – | > 100 µM | > 100 µM | > 100 µM | > 100 µM | > 100 µM | > 100 µM | – | > 100 µM
10 | O=C1/C(=C/c2ccc(O)cc2)CCCC1CN1CCCCC1 (configuration not stated) | 3.8 µM | > 24.4 µM | 4.82 µM | 11.8 µM | 10 µM | 30.4 µM | 7.05 µM | 4.35 µM | 30.8 µM
11 | CCOC(=O)/C=C(/C(=O)OCC)n1cc(C)c(=O)n(Cc2cnnn2COCCOC(C)=O)c1=O | 32.7 µM | 24.8 µM | 18.8 µM | 31.5 µM | 37.7 µM | > 100 µM | 52.4 µM | 39.6 µM | 36.9 µM
12 | O=C(CN1CCCC1=O)CS(=O)(=O)c1ccccc1 | > 100 µM | > 100 µM | > 100 µM | > 100 µM | > 100 µM | – | – | > 100 µM | > 100 µM
13 | Cc1nnc(N)nc1/C=C\c1ccc(Cl)cc1Cl | 39.4 µM | > 100 µM | > 100 µM | > 100 µM | > 100 µM | > 100 µM | > 100 µM | > 100 µM | > 100 µM
14 | COC(=O)CN(CC(=O)NCCCBr)C1CCCCC1N(CC(=O)OC)CC(=O)OC (configuration not stated) | > 100 µM | > 100 µM | > 100 µM | > 100 µM | > 100 µM | > 100 µM | > 100 µM | > 100 µM | > 100 µM
15 | Cc1cc2c(c(C(=O)NCC(=O)N[C@@H](C)C(=O)OCc3ccccc3)c1)Oc1c(cc(C)cc1C(=O)NCC(=O)N[C@@H](C)C(=O)OCc1ccccc1)S2 | > 100 µM | > 100 µM | > 100 µM | > 100 µM | > 100 µM | > 100 µM | > 100 µM | > 100 µM | > 100 µM
16 | COc1cccc2c1NC(=O)Cc1c-2[nH]c2ccccc12 | > 100 µM | > 100 µM | > 100 µM | > 100 µM | > 100 µM | > 100 µM | – | > 100 µM | > 100 µM
17 | COc1cc(CC(C)=O)cc(OC)c1 | > 100 µM | > 100 µM | 73.2 µM | > 100 µM | > 100 µM | > 100 µM | > 100 µM | 85.4 µM | > 100 µM
18 | CN(C)CN1CSC(=S)N(CN(C)C)C1 | > 100 µM | > 100 µM | 92.4 µM | > 100 µM | 42.7 µM | – | > 100 µM | 55.2 µM | > 100 µM
19 | Clc1ccc(CCNC2(c3cc4ccccc4s3)CCCCC2)cc1Cl | > 100 µM | 36.7 µM | 37.9 µM | > 100 µM | > 100 µM | > 100 µM | > 100 µM | 32.5 µM | 68.1 µM
20 | C/C=C1/CN2CCC34c5ccccc5N(C)C23C2CC1C4(C(=O)OC)C(OC(C)=O)O2 (configuration not stated) | > 100 µM | > 100 µM | > 100 µM | > 100 µM | > 100 µM | > 100 µM | > 100 µM | > 100 µM | > 100 µM
21 | COc1ccccc1NC(=S)N=Nc1c(O)[nH]c2ccccc12 | > 100 µM | > 100 µM | > 100 µM | > 100 µM | > 100 µM | > 100 µM | > 100 µM | > 100 µM | > 100 µM
22 | COC(=O)Nc1nc2ccc(S(=O)(=O)Nc3ccccn3)cc2[nH]1 | > 100 µM | 75.9 µM | 64 µM | > 100 µM | > 100 µM | > 100 µM | > 100 µM | 64.1 µM | > 100 µM
23 | COC(C/C(=C/CO[Si](C(C)C)(C(C)C)C(C)C)C(=O)N(C(=O)OC(C)(C)C)c1ccccc1I)OC | 29.6 µM | > 100 µM | > 100 µM | > 100 µM | 77.4 µM | > 100 µM | > 100 µM | > 100 µM | > 100 µM
24 | O=C(NC(=S)Nc1ccc([N+](=O)[O-])cc1)c1ccc2c(c1)Sc1ccccc1O2 | > 100 µM | > 100 µM | > 100 µM | > 100 µM | > 100 µM | > 100 µM | > 100 µM | > 100 µM | > 100 µM
